Measured values taken from patent publication EP0726257A1, “1-(Hetero)Arylvinyl-5H-2,3-benzodiazepine derivatives useful for the treatment of central nervous system disorders, and benzopyrylium intermediates for their preparation” (EGIS GYOGYSZERGYAR RT., priority 1995, dated 1996).
pKi: −log10 of the molar value. Read-outs that look alike come from different tables or passages of the source.

Assays:
[1] = target: homophthalazine binding site; test: Displacement of 3H-girisopam from the homophthalazine binding site in rat brain striatal membrane preparation; conditions: displacing 5 nM 3H-girisopam
Method: Ki values were calculated according to the following equation: Ki = IC50 :(1 +([L])/(KD)), [formula] wherein KD is the dissociation constant of the labelled ligand-receptor complex, [L] is the concentration of the labelled ligand and IC50 is the half maximal inhibitory concentration of the test compound.

Catalepsy in mice = test: Cataleptic effect in mice (Schlichtegroll); type: in vivo; conditions: p.o.
Method: (§1) The cataleptic effect of the compounds was measured both in mice (Schlichtegroll: Arzneim. Forsch., 8, 489, [1958]) and in rats (Morpurgo: Arch. Int. Pharmacodyn., 137, 87, [1962]).

Catalepsy in rats = test: Cataleptic effect in rats (Morpurgo); type: in vivo; conditions: p.o.
Method: as §1

[2] = test system: spontaneous motor activity (SMA) in mice; test: Behavioural effects according to Irwin (decrease in spontaneous motor activity); type: in vivo; set-up: key: ++ strong; + moderate; +- slight decrease in spon-taneous motor activity [SMA]
Method: (§2) The behavioural effects of 1-[2'-(substituted) vinyl]-5H-2,3-benzodiazepine derivatives according to the invention and of reference substances were measured according to the method of Irwin (Psychopharmacology, 13, 222 [1968]). The results and the acute toxicity data (dead/treated animals, shown in brackets) can be seen in the following Table II
(§3) From the above Table II it can be taken that the 1-[2'-(substituted) vinyl]-5H-2,3-benzodiazepine derivatives according to the invention considerably decrease the spontaneous motor activity (SMA) in mice after intraperitoneal or oral administration.

mice = test: Acute toxicity (dead/treated animals) in the Irwin test; type: in vivo
Method: as §2, §3

[3] = test system: spontaneous motor activity of mice; test: Inhibition of spontaneous motor activity according to Borsy et al.; type: in vivo; conditions: Mus musculus, po, 0.5 h
Method: The potential antipsychotic activity of 1-[2'-(substituted) vinyl]-5H-2,3-benzodiazepine derivatives according to the invention and of reference substances was tested according to the method of Puech et al. (Psychopharmacology, 75, 84, [1981] by measuring their inhibiting effect on the "climbing" reaction induced by 5,6,6a,7-tetra-(hydro)-6-(methyl)-4H-dibenzo[de,g]quinoline-10,11-di-(ol){apomorphine}. The results have been expressed as ED50 values. Since the inhibition of the spontaneous motor activity (SMA) is an important characteristic of the antipsychotic drugs, the ED50 values of a number of compounds were determined according to the method of Borsy et al. (Arch. Int. Pharmacodyn., 124, 1, 196).
The effect of the 1-[2'-(substituted) vinyl]-5H-2,3-benzodiazepine derivatives according to the invention on the spontaneous motor activity was tested according to the method of Borsy et al. Groups consisting of 3 mice were treated orally with different doses of the compounds to be tested. Then the animals were placed into a 10-channel Dews system equipment, wherein the number of interruptions of infrared beam within 30 minutes was counted. […]

rats = test: Elevated plus-maze test (Pellow), anxiolytic activity; type: in vivo; conditions: Rattus norvegicus, po, 1 h; p.o., elevated plus maze, Sprague Dawley rats, 60 minutes pretreatment, significant increase of time spent on open arms; read-out: Minimum effective dose
Text: The anxiolytic activity was studied in rats according to the "lick-conflict" test elaborated by Vogel et al. (Psychopharmacology, 21, 1, [1971] and the elevated plus-maze test described by Pellow (Pellow, J.: Neurosci. Meth. 14, 149, [1985]). The antiaggressive effect was investigated in mice using the "fighting behaviour" method of Tedeschi (J. Pharm. Exp. Ther., 125, 28, [1959]). The minimal effective dose (MED) values and the ED50 values obtained are shown in the following Table V.
The anxiolytic activity of these compounds was investigated in the elevated plus maze test. Male rats belonging to the Sprague Dawley strain and weighing 220 to 260 g were used as test animals. The test was carried out with the aid of a wooden plus-shaped maze elevated to a height of 50 cm and containing two enclosed and two open arms (50 cm long and 15 cm wide). After 60 minutes pretreatment the animals were placed into the maze and observed for 5 minutes. The drug effect was expressed as percent increase of the time spent on the open arms and number of open arm entries. The minimum effective dose (MED) which caused a significant increase of the time spent on the open arms was calculated for every substance [Pelow, S., Chopin, P., File, S.E., Briley, M.: J. Neurosci. Methods 14, 149 to 167 [1985]).

[4] = p.o., mice, interruptions of infrared beam within 30 minutes, read-out: ID50 (the source's name)

SMILES	pKi [1]	Behaviour ([2]; 300 mg/kg i.p.)	Behaviour ([2]; 1000 mg/kg p.o.)	acute toxicity (dead/treated animals) (mice; 300 mg/kg i.p.)	acute toxicity (dead/treated animals) (mice; 1000 mg/kg p.o.)	also measured
COc1ccc(C=CC2=NN=C(C)Cc3cc(OC)c(OC)cc32)cc1 [Example 9]	7.74	–	–	–	–	–
COc1cc2c(cc1OC)C(C=Cc1ccc([N+](=O)[O-])cc1)=NN=C(C)C2 [Example 12]	7.77	–	–	–	–	–
COc1ccc(C=CC2=NN=C(C)Cc3cc(OC)c(OC)cc32)cc1C [Example 14]	7.80	–	–	–	–	–
COc1cc2c(cc1OC)C(C=Cc1ccc(OC(C)C)cc1)=NN=C(C)C2 [Example 15]	7.89	–	–	–	–	–
COc1cc2c(cc1OC)C(C=Cc1cccc(OC(C)C)c1)=NN=C(C)C2 [Example 16]	7.96	–	–	–	–	–
COc1cc2c(cc1OC)C(C=Cc1ccccc1OC(C)C)=NN=C(C)C2 [Example 18]	7.74	–	–	–	–	–
COc1cc2c(cc1OC)C(C=Cc1ccc3c(c1OC)OCO3)=NN=C(C)C2 [Example 21]	8.10	–	–	–	–	Catalepsy in mice Minimal effective dose [MED] (Catalepsy in mice): >100 mg/kg; Catalepsy in rats Minimal effective dose [MED] (Catalepsy in rats): >100 mg/kg
COc1cc2c(cc1OC)C(C=Cc1ccc(F)cc1)=NN=C(C)C2 [Example 28]	7.92	–	–	–	–	–
COc1cc2c(cc1OC)C(C=Cc1ccccc1)=NN=C(C)C2 [Example 33]	7.92	–	–	–	–	–
COc1cc2c(cc1OC)C(C=Cc1ccccc1Br)=NN=C(C)C2 [Example 36]	8.00	–	–	–	–	–
CCC1C(C)=NN=C(C=Cc2ccc(N(C)C)cc2)c2cc(OC)c(OC)cc21 (stereo not shown) [Example 37]	–	+ +	+ +	0/5	4/5	–
COc1cc2c(cc1OC)C(C=Cc1ccc(OC)c(C(C)C)c1)=NN=C(C)C2 [Example 40]	–	+ +	+ +	0/5	4/5	–
CCCc1cc(C=CC2=NN=C(C)Cc3cc(OC)c(OC)cc32)ccc1OC [Example 41]	7.80	–	–	–	–	–
COc1cc2c(cc1OC)C(C=Cc1ccccc1C)=NN=C(C)C2 [Example 42]	7.96	+ +	+ +	0/5	0/5	–
COc1cc2c(cc1OC)C(C=Cc1ccc(C(F)(F)F)cc1)=NN=C(C)C2 [Example 45]	7.82	–	–	–	–	–
CCC1C(C)=NN=C(C=Cc2cccc(Cl)c2)c2cc(OC)c(OC)cc21 (stereo not shown) [Example 48]	7.72	+	+-	0/5	0/5	–

SMILES	pKi [1]	Behaviour ([2]; 300 mg/kg i.p.)	Behaviour ([2]; 1000 mg/kg p.o.)	acute toxicity (dead/treated animals) (mice; 300 mg/kg i.p.)	acute toxicity (dead/treated animals) (mice; 1000 mg/kg p.o.)	also measured
CCN(CC)c1ccc(C=CC2=NN=C(C)Cc3cc(OC)c(OC)cc32)cc1 [Example 49]	8.00	+ +	+ +	0/5	3/5	–
COc1cc2c(cc1OC)C(C=Cc1cccc(Cl)c1)=NN=C(C)C2 [Example 51]	7.72	+	+ +	0/6	0/6	Catalepsy in mice Minimal effective dose [MED] (Catalepsy in mice): 100 mg/kg; Catalepsy in rats Minimal effective dose [MED] (Catalepsy in rats): >100 mg/kg
COc1cc2c(cc1OC)C(C=Cc1ccccc1Cl)=NN=C(C)C2 [Example 54]	–	+	+	2/5	2/5	–
COc1ccc(C=CC2=NN=C(C)Cc3cc(OC)c(OC)cc32)cc1Cl [Example 55]	7.96	–	–	–	–	–
COc1cc(OC)c(C=CC2=NN=C(C)Cc3cc(OC)c(OC)cc32)c(OC)c1 [Example 58]	7.72	+	+ +	0/5	0/5	–
COc1cc(OC)c(OC)cc1C=CC1=NN=C(C)Cc2cc(OC)c(OC)cc21 [Example 59]	7.80	–	–	–	–	–
CCC1C(C)=NN=C(C=Cc2ccc(OC)c(OC)c2)c2cc(OC)c(OC)cc21 (stereo not shown) [Example 64]	–	+	+-	0/5	0/5	–
COc1cc2c(cc1OC)C(C=Cc1ccc3c(c1)OCO3)=NN=C(C)C2 [Example 67]	8.30	+-	+	0/6	0/6	Catalepsy in mice Minimal effective dose [MED] (Catalepsy in mice): >100 mg/kg; Catalepsy in rats Minimal effective dose [MED] (Catalepsy in rats): >100 mg/kg
COc1cc2c(cc1OC)C(C=Cc1c[nH]c3ccccc13)=NN=C(C)C2 [Example 71]	8.30	–	–	–	–	–
COc1cc2c(cc1OC)C(C=Cc1cccc(N)c1)=NN=C(C)C2 [Example 74]	7.85	–	–	–	–	–
COc1cc2c(cc1OC)C(C=Cc1ccc(Cl)c(N)c1)=NN=C(C)C2 [Example 77]	8.00	+ +	+ +	0/5	0/5	–
COc1cc2c(cc1OC)C(C=Cc1ccc(Cl)c(NC(C)=O)c1)=NN=C(C)C2 [Example 85, 1-[3'-(Acetylamino)-4-(chloro)-styryl]-4-[methyl]-7,8-di-[methoxy]-5H-2,3-benzodiazepine]	7.85	+-	+	0/5	0/5	–
CC1=NN=C(C=Cc2ccc(C#N)cc2)c2cc3c(cc2C1)OCO3 [Example 88, 1-[4'-(Cyano)-styryl]-4-[methyl]-7,8-[methylenedioxy]-5H-2,3-benzodiazepine]	–	–	–	–	–	ED50 [3, 4]: > 100 mg/kg
CC1=NN=C(C=Cc2cccc(F)c2)c2cc3c(cc2C1)OCO3 [Example 89, 1-[3'-(Fluoro)-styryl]-4-[methyl]-7,8-[methylenedioxy]-5H-2,3-benzodiazepine]	–	–	–	–	–	minimal effective dose (rats): 0.3 mg/kg
CC1=NN=C(C=Cc2ccc(F)cc2)c2c(ccc3c2OCO3)C1 [Example 91, 1-[4'-(Fluoro)-styryl]-4-[methyl]-8,9-[methylenedioxy]-5H-2,3-benzodiazepine]	–	–	–	–	–	ED50 [3, 4]: > 100 mg/kg
CN1C(=O)CN=C(c2ccccc2)c2cc(Cl)ccc21 [diazepam, 7-(chloro)-2,3-di-(hydro)-1-(methyl)-5-(phenyl)-1H-1,4-benzodiazepin-2-(one), reference compound]	–	–	–	–	–	ED50 ([3]; read-out: ID50): 23 mg/kg
